Source: ChEMBL document CHEMBL1781907, “Expeditious synthesis and biological evaluation of novel 2,N6-disubstituted 1,2-dihydro-1,3,5-triazine-4,6-diamines as potential antimalarials” (Eur J Med Chem, 2011)

Tests used:
[1] = Toxicity at human RBC assessed as haemolysis at 50 uM; assay type: cell-based; settings: erythrocyte
Plasmodium falciparum [2] = test: Antimalarial activity against chloroquine and cycloguanil-resistant Plasmodium falciparum FCR-3/Gambia ring stage infected in human red blood cells assessed as inhibition of [3H]-hypoxanthine incorporation incubated 24 hrs before addition of [3H]-hypoxanthine measured after 24 hrs; assay type: functional, cell-based
Plasmodium falciparum [3] = test: Ratio of cycloguanil IC50 to compound IC50 for chloroquine and cycloguanil-resistant Plasmodium falciparum FCR-3/Gambia; assay type: functional

| Structure (SMILES) | Activity [1] | IC50 (Plasmodium falciparum [2]) | Ratio IC50 (Plasmodium falciparum [3]) |
| --- | --- | --- | --- |
| CC1(C)N=C(N)N=C(NCc2ccccc2)N1.Cl | Non-toxic | 49.8 µM | – |
| Cl.NC1=NC2(CCCCC2)NC(NCc2ccccc2)=N1 | Non-toxic | 9.89 µM | – |
| CC1(C)N=C(N)N=C(NCCc2ccc(Cl)cc2)N1.Cl | Non-toxic | 16.6 µM | – |
| Cl.NC1=NC(c2ccc([N+](=O)[O-])cc2)NC(NCCc2ccc(Cl)c(Cl)c2)=N1 (stereo unspecified) | Non-toxic | 11.1 µM | – |
| Cl.NC1=NC(c2ccc(F)cc2)NC(NCCc2ccc(Cl)c(Cl)c2)=N1 (stereo unspecified) | Non-toxic | 8.41 µM | – |
| CC1(C)N=C(N)N=C(NCCCOc2ccc(Cl)cc2)N1.Cl | Non-toxic | 11.3 µM | – |
| Cl.NC1=NC(c2ccccc2)NC(NCCCOc2ccc(Cl)cc2)=N1 (stereo unspecified) | Non-toxic | 7.11 µM | – |
| Cl.NC1=NC(c2ccc(C(F)(F)F)cc2)NC(NCCCOc2ccc(Cl)cc2)=N1 (stereo unspecified) | Non-toxic | 5.54 µM | – |
| Cl.NC1=NC(c2ccccc2)NC(NCCCOc2ccc(Cl)c(Cl)c2)=N1 (stereo unspecified) | Non-toxic | 6.73 µM | – |
| Cl.NC1=NC(c2ccccc2)NC(NCCCOc2c(Cl)cc(Cl)cc2Cl)=N1 (stereo unspecified) | Non-toxic | 4.32 µM | – |
| Cl.NC1=NC(c2ccco2)NC(NCCCOc2ccc(Cl)cc2)=N1 (stereo unspecified) | Non-toxic | 0.99 µM | 5 |
| Cl.NC1=NC(c2ccc([N+](=O)[O-])cc2)NC(NCCCOc2ccc(Cl)cc2)=N1 (stereo unspecified) | Non-toxic | 7.39 µM | – |
| Cl.NC1=NC(c2ccccc2Cl)NC(NCCCOc2ccc(Cl)cc2)=N1 (stereo unspecified) | Non-toxic | 6.66 µM | – |
| Cl.NC1=NC(C2CCCCC2)NC(NCCCOc2ccc(Cl)cc2)=N1 (stereo unspecified) | Non-toxic | 4.59 µM | – |
| Cl.NC1=NC2(CCCCC2)NC(NCCCOc2ccc(Cl)cc2)=N1 | Non-toxic | 7.94 µM | – |
| COc1ccc(C2N=C(N)N=C(NCCCOc3ccc(Cl)cc3)N2)cc1.Cl (stereo unspecified) | Non-toxic | 6.66 µM | – |
| CN(C)c1ccc(C2N=C(N)N=C(NCCCOc3ccc(Cl)cc3)N2)cc1.Cl (stereo unspecified) | Non-toxic | 44.8 µM | – |
| Cl.NC1=NC(c2ccc(F)cc2)NC(NCCCOc2ccc(Cl)cc2)=N1 (stereo unspecified) | Non-toxic | 6.21 µM | – |
| Cl.NC1=NC(c2ccccc2)NC(NCCCSc2ccc(Cl)cc2)=N1 (stereo unspecified) | Non-toxic | 1.3 µM | 5 |
| CC1(C)N=C(N)N=C(NCCCSc2ccc(Cl)cc2)N1.Cl | Non-toxic | 7.84 µM | – |
| Cl.NC1=NC(c2ccccc2)NC(NCCCOc2ccccc2Cl)=N1 (stereo unspecified) | Non-toxic | 4.53 µM | – |
| Cl.NC1=NC(c2ccccc2)NC(NCCCOc2ccc(Cl)cc2Cl)=N1 (stereo unspecified) | Non-toxic | 4.52 µM | – |
| Cl.NC1=NC(c2ccccc2)NC(NCCCOc2ccccc2F)=N1 (stereo unspecified) | Non-toxic | 10.8 µM | – |
| Cl.NC1=NC(c2ccccc2)NC(NCCCOc2ccc([N+](=O)[O-])cc2)=N1 (stereo unspecified) | Non-toxic | 3.87 µM | – |
| COc1ccc(OCCCNC2=NC(N)=NC(c3ccccc3)N2)cc1.Cl (stereo unspecified) | Non-toxic | 12.3 µM | – |
| CC1(C)N=C(N)N=C(NCCCCOc2ccc(Cl)cc2)N1.Cl | Non-toxic | 7.2 µM | – |
| Cl.NC1=NC(c2ccccc2)NC(NCCCCOc2ccc(Cl)cc2)=N1 (stereo unspecified) | Non-toxic | 2.71 µM | 5 |
| Cl.NC1=NC(c2ccccc2)NC(NCCCCCOc2ccc(Cl)cc2)=N1 (stereo unspecified) | Non-toxic | 1.36 µM | 5 |
| CC1(C)N=C(N)N=C(N)N1c1ccc(Cl)cc1 [CYCLOGUANIL] | – | 5 µM | – |
